# Reference: US20250304567A1, “PYRROLIDIONE DERIVATIVES AS INHIBITORS OF NF KAPPA B INDUCING KINASE” (priority 2022, published 2025)
# Like-named read-outs stand apart in the source and are kept apart here.
# What was measured:
# [1] = molecular target: Recombinant Human NF-kappaB-Inducing Kinase (NIK/MAP3K14) (Homo sapiens, UniProt Q99558); assay: Inhibition of auto-phosphorylation of recombinant human NIK/MAP3K14 activity (AlphaScreen); assay type: biochemical; details: 5 μM ATP, 1 nM NIK, average if tested more than once
# Chain of Recombinant Human NF-kappaB-Inducing Kinase (NIK/MAP3K14) (Q99558 whole entry): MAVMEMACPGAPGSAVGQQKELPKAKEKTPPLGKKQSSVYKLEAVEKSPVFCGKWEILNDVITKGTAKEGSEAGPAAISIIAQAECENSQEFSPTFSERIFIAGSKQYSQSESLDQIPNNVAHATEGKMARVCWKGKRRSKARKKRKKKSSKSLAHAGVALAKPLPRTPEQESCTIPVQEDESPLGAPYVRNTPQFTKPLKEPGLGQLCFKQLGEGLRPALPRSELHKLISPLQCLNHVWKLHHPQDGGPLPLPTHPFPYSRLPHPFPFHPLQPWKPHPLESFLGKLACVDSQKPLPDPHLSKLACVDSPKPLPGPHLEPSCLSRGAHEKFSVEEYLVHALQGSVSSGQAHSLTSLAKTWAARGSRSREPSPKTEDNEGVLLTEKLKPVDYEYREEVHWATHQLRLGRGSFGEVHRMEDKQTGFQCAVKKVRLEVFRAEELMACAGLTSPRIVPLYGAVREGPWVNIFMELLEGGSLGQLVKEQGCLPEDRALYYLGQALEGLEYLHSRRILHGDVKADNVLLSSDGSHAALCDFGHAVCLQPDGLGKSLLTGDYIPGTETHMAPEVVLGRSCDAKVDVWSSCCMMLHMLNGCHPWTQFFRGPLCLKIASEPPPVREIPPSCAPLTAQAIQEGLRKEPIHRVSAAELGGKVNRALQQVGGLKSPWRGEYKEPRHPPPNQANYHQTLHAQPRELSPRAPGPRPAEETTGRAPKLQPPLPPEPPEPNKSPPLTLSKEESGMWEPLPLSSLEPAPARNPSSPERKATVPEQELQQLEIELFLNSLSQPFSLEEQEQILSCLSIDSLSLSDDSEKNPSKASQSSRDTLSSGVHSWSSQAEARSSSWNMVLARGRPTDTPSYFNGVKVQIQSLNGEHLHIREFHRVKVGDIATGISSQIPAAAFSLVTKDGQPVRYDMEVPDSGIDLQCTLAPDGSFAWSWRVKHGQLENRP
# In short: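 AlphaScreen detection of phospho-Ser176/180 after 1 nM GST-NIK auto-phosphorylates for 2 h at 25 °C with 5 μM ATP (50 mM Tris pH 7.5, 0.7% DMSO). IC50s come from sigmoidal curves of % inhibition against log dose, using enzyme-free, ATP-free low controls and full-activity high controls.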
# [2] = tested on: p-IKKa levels in L363 (NIK translocated multiple myeloma) cells; assay: Effect of compounds on p-IKKa levels in L363 (NIK translocated multiple myeloma) cells (AlphaLISA SureFire Ultra p-IKKa Ser176/180); assay type: cell-based, human; details: average if tested more than once, read-out: Assay 2 IC50
# In short: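 Phospho-IKKa (Ser176/180) in lysates quantified by AlphaLISA after 6 h compound exposure, 11-point threefold dilutions, 0.3% DMSO. L363 cells were pre-stimulated overnight and assayed with 250 ng/ml BAFF and 10 μM MG132; % inhibition fitted sigmoidally for IC50, duplicate curves.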
# [3] = Homo sapiens, L-363, p-IKKa levels in L363 cells
smiles,measurement,setting,value
"CN1CC[C@@](O)(c2cccc(-c3nc(-c4ccnc(Nc5cnn(C6CC6)c5)n4)cs3)c2)C1=O [Example 263, (R)-3-(3-(4-(2-((1-Cyclopropyl-1H-pyrazol-4-yl)amino)pyrimidin-4-yl)thiazol-2-yl)phenyl)-3-hydroxy-1-methylpyrrolidin-2-one]",IC50,[1],< 100 nM
same,IC50,[2]; [3],100 to 500 nM
"Cc1nn(C(F)F)cc1Nc1nccc(-c2csc(-c3cccc([C@]4(O)CCN(C)C4=O)c3)n2)n1 [Example 140, (R)-3-(3-(4-(2-((1-(difluoromethyl)-3-methyl-1H-pyrazol-4-yl)amino)pyrimidin-4-yl)thiazol-2-yl)phenyl)-3-hydroxy-1-methylpyrrolidin-2-one]",IC50,[1],< 100 nM
same,IC50,[2]; [3],< 100 nM
CN1CC[C@@](O)(c2cccc(-c3nc(-c4ccnc(NCc5ccnn5C)n4)cs3)c2)C1=O [Example 197],IC50,[1],< 100 nM
same,IC50,[2]; [3],> 501 nM
"CN1CC[C@@](O)(c2cccc(-c3nc(-c4ccnc(Nc5ccn(C(C)(C)C)n5)n4)cs3)c2)C1=O [Example 285, (R)-3-(3-(4-(2-((1-(tert-butyl)-1H-pyrazol-3-yl)amino)pyrimidin-4-yl)thiazol-2-yl)phenyl)-3-hydroxy-1-methylpyrrolidin-2-one]",IC50,[1],< 100 nM
same,IC50,[2]; [3],100 to 500 nM
"CN1CC[C@@](O)(c2cccc(-c3nc(-c4ccnc(Nc5cccc(OC(F)F)n5)n4)cs3)c2)C1=O [Example 168, (R)-3-(3-(4-(2-((6-(Difluoromethoxy)pyridin-2-yl)amino)pyrimidin-4-yl)thiazol-2-yl)phenyl)-3-hydroxy-1-methylpyrrolidin-2-one]",IC50,[1],< 100 nM
same,IC50,[2]; [3],> 501 nM
COCCCNc1nccc(-c2csc(-c3cccc([C@]4(O)CCN(C)C4=O)c3)n2)n1 [Example 242],IC50,[1],100 to 500 nM
same,IC50,[2]; [3],> 501 nM
CN1CC[C@@](O)(c2cccc(-c3nc(-c4ccnc(N[C@H]5CC[C@@H](C#N)CC5)n4)cs3)c2)C1=O [Example 243],IC50,[1],< 100 nM
same,IC50,[2]; [3],> 501 nM
CN1CC[C@@](O)(c2cccc(-c3nc(-c4ccnc(NCCc5cnn(C)c5)n4)cs3)c2)C1=O [Example 187],IC50,[1],< 100 nM
same,IC50,[2]; [3],> 501 nM
"CN1CC[C@@](O)(c2cccc(-c3csc(-c4ccnc(Nc5cnn(C)c5)n4)n3)c2)C1=O [Example 79, (R)-3-hydroxy-1-methyl-3-(3-(2-(2-((1-methyl-1H-pyrazol-4-yl)amino)pyrimidin-4-yl)thiazol-4-yl)phenyl)pyrrolidin-2-one]",IC50,[1],< 100 nM
same,IC50,[2]; [3],> 501 nM
"CN1CC[C@@](O)(c2cccc(-c3csc(-c4ccnc(Nc5cnn(CC(C)(C)O)c5)n4)n3)c2)C1=O [Example 89, (R)-3-hydroxy-3-(3-(2-(2-((1-(2-hydroxy-2-methylpropyl)-1H-pyrazol-4-yl)amino)pyrimidin-4-yl)thiazol-4-yl)phenyl)-1-methylpyrrolidin-2-one]",IC50,[1],< 100 nM
same,IC50,[2]; [3],< 100 nM
Cc1cnc(CNc2nccc(-c3csc(-c4cccc([C@]5(O)CCN(C)C5=O)c4)n3)n2)o1 [Example 200],IC50,[1],< 100 nM
same,IC50,[2]; [3],> 501 nM
CC(Nc1nccc(-c2csc(-c3cccc([C@]4(O)CCN(C)C4=O)c3)n2)n1)c1ncccn1 (stereo partly shown) [Example 207],IC50,[1],< 100 nM
same,IC50,[2]; [3],> 501 nM
CN1CC[C@@](O)(c2cccc(-c3nc(-c4ccnc(NCCCO)n4)cs3)c2)C1=O [Example 174],IC50,[1],< 100 nM
same,IC50,[2]; [3],> 501 nM
Cc1ncc(Nc2nccc(-c3csc(-c4cccc([C@]5(O)CCN(C)C5=O)c4)n3)n2)s1 [Example 249],IC50,[1],> 501 nM
same,IC50,[2]; [3],> 501 nM
CN1CC[C@@](O)(c2cccc(-c3nc(-c4ccnc(N[C@@H]5CCOC5)n4)cs3)c2)C1=O [Example 251],IC50,[1],< 100 nM
same,IC50,[2]; [3],> 501 nM
"CN1CCC(O)(c2ccnc(-c3cccc(-c4ccnc(Nc5ccn(C)n5)n4)n3)c2)C1=O (racemic) [Example 31, (R,S)-3-Hydroxy-1-methyl-3-(6′-(2-((1-methyl-1H-pyrazol-3-yl)amino)pyrimidin-4-yl)-[2,2′-bipyridin]-4-yl)pyrrolidin-2-one]",IC50,[1],> 501 nM
same,IC50,[2]; [3],> 501 nM
"CC(C)Oc1nn(C)cc1Nc1nccc(-c2csc(-c3cccc([C@]4(O)CCN(C)C4=O)c3)n2)n1 [Example 100, (R)-3-hydroxy-3-(3-(4-(2-((3-isopropoxy-1-methyl-1H-pyrazol-4-yl)amino)pyrimidin-4-yl)thiazol-2-yl)phenyl)-1-methylpyrrolidin-2-one]",IC50,[1],< 100 nM
same,IC50,[2]; [3],< 100 nM
"CN1C(=O)[C@](O)(c2cncc(-c3csc(-c4ccnc(Nc5ccn(C)n5)n4)n3)c2)C[C@H]1C(F)(F)F (single isomer, unassigned) [Example 61]",IC50,[1],< 100 nM
same,IC50,[2]; [3],100 to 500 nM
CN1CC[C@@](O)(c2cccc(-c3nc(-c4ccnc(NCc5cn(C)cn5)n4)cs3)c2)C1=O [Example 196],IC50,[1],100 to 500 nM
same,IC50,[2]; [3],> 501 nM
"CN1CC[C@@](O)(c2cccc(-c3csc(-c4ccnc(Nc5ccn(CC6CC6)n5)n4)n3)c2)C1=O [Example 289, (R)-3-(3-(2-(2-((1-(cyclopropylmethyl)-1H-pyrazol-3-yl)amino)pyrimidin-4-yl)thiazol-4-yl)phenyl)-3-hydroxy-1-methylpyrrolidin-2-one]",IC50,[1],> 501 nM
same,IC50,[2]; [3],> 501 nM
"CN1CC[C@@](O)(c2cccc(-c3nc(-c4ccnc(N)n4)cs3)c2)C1=O [Example 6, (R)-3-(3-(4-(2-Aminopyrimidin-4-yl)thiazol-2-yl)phenyl)-3-hydroxy-1-methylpyrrolidin-2-one]",IC50,[1],100 to 500 nM
same,IC50,[2]; [3],> 501 nM
"CN1CC[C@@](O)(c2cccc(-c3nc(-c4ccnc(Nc5cn(C)nc5OCC(F)F)n4)cs3)c2)C1=O [Example 96, (R)-3-(3-(4-(2-((3-(2,2-difluoroethoxy)-1-methyl-1H-pyrazol-4-yl)amino)pyrimidin-4-yl)thiazol-2-yl)phenyl)-3-hydroxy-1-methylpyrrolidin-2-one]",IC50,[1],< 100 nM
same,IC50,[2]; [3],< 100 nM
"CN1CC[C@@](O)(c2cccc(-c3nc(-c4ccnc(Nc5cn(CC6CCC6)cn5)n4)cs3)c2)C1=O [Example 125, (R)-3-(3-(4-(2-((1-(cyclobutylmethyl)-1H-imidazol-4-yl)amino)pyrimidin-4-yl)thiazol-2-yl)phenyl)-3-hydroxy-1-methylpyrrolidin-2-one]",IC50,[1],< 100 nM
same,IC50,[2]; [3],> 501 nM
"CN1CC[C@@](O)(c2cccc(-c3nc(-c4ccnc(Nc5ccn(CC(F)F)n5)n4)cs3)c2)C1=O [Example 258, (R)-3-(3-(4-(2-((1-(2,2-Difluoroethyl)-1H-pyrazol-3-yl)amino)pyrimidin-4-yl)thiazol-2-yl)phenyl)-3-hydroxy-1-methylpyrrolidin-2-one]",IC50,[1],< 100 nM
same,IC50,[2]; [3],100 to 500 nM
CN1CC[C@@](O)(c2cccc(-c3nc(-c4ccnc(NC5CCc6cccnc65)n4)cs3)c2)C1=O (stereo partly shown) [Example 225],IC50,[1],100 to 500 nM
same,IC50,[2]; [3],> 501 nM
CN1CC[C@@](O)(c2cccc(-c3nc(-c4ccnc(NCc5ccncn5)n4)cs3)c2)C1=O [Example 217],IC50,[1],100 to 500 nM
same,IC50,[2]; [3],> 501 nM
"Cc1cc(Nc2nccc(-c3csc(-c4cccc([C@]5(O)CCN(C)C5=O)c4)n3)n2)c(=O)n(C)c1 [Example 14, (R)-3-((4-(2-(3-(3-Hydroxy-1-methyl-2-oxopyrrolidin-3-yl)phenyl)thiazol-4-yl)pyrimidin-2-yl)amino)-1,5-dimethylpyridin-2(1H)-one]",IC50,[1],< 100 nM
same,IC50,[2]; [3],100 to 500 nM
"CN1CC[C@@](O)(c2cccc(-c3nc(-c4ccnc(Nc5cccc(OC(F)(F)F)n5)n4)cs3)c2)C1=O [Example 167, (R)-3-Hydroxy-1-methyl-3-(3-(4-(2-((6-(trifluoromethoxy)pyridin-2-yl)amino)pyrimidin-4-yl)thiazol-2-yl)phenyl)pyrrolidin-2-one]",IC50,[1],< 100 nM
same,IC50,[2]; [3],> 501 nM
"CN1CC[C@@](O)(c2cccc(-c3nc(-c4ccnc(Nc5cccnc5C(F)(F)F)n4)cs3)c2)C1=O [Example 166, (R)-3-Hydroxy-1-methyl-3-(3-(4-(2-((2-(trifluoromethyl)pyridin-3-yl)amino)pyrimidin-4-yl)thiazol-2-yl)phenyl)pyrrolidin-2-one]",IC50,[1],< 100 nM
same,IC50,[2]; [3],> 501 nM
"C[C@@H](Nc1nccc(-c2csc(-c3cccc([C@]4(O)CCN(C)C4=O)c3)n2)n1)c1cn[nH]c1 (single isomer, unassigned) [Example 293]",IC50,[1],< 100 nM
same,IC50,[2]; p-IKKa levels in L363 cells,100 to 500 nM
"CN1CC[C@@](O)(c2cccc(-c3ccn(-c4ccnc(NC5COC5)n4)n3)c2)C1=O [Example 132, (R)-3-hydroxy-1-methyl-3-(3-(1-(2-(oxetan-3-ylamino)pyrimidin-4-yl)-1H-pyrazol-3-yl)phenyl)pyrrolidin-2-one]",IC50,[1],< 100 nM
same,IC50,[2]; [3],100 to 500 nM
"Cc1cc(Nc2nccc(-c3nc(-c4cccc([C@]5(O)CCN(C)C5=O)c4)cs3)n2)n(C)n1 [Example 81, (R)-3-(3-(2-(2-((1,3-dimethyl-1H-pyrazol-5-yl)amino)pyrimidin-4-yl)thiazol-4-yl)phenyl)-3-hydroxy-1-methylpyrrolidin-2-one]",IC50,[1],100 to 500 nM
same,IC50,[2]; [3],> 501 nM
"CC(Nc1nccc(-c2nc(-c3cccc(C4(O)CCN(C)C4=O)c3)cs2)n1)c1cc[nH]n1 (single isomer, unassigned) [Example 42]",IC50,[1],< 100 nM
same,IC50,[2]; p-IKKa levels in L363 cells,> 501 nM
"C[C@H](Nc1nccc(-n2ccc(-c3cccc([C@]4(O)CCN(C)C4=O)c3)n2)n1)c1ccnn1C (single isomer, unassigned) [Example 91]",IC50,[1],< 100 nM
same,IC50,[2]; [3],100 to 500 nM
"CN1CC[C@](O)(c2cc(-c3csc(-c4ccnc(Nc5ccn(C)n5)n4)n3)ccc2F)C1=O (single isomer, unassigned) [Example 25]",IC50,[1],100 to 500 nM
same,IC50,[2]; [3],> 501 nM
